From ChEMBL document CHEMBL5036312, “From the Design to the In Vivo Evaluation of Benzohomoadamantane-Derived Soluble Epoxide Hydrolase Inhibitors for the Treatment of Acute Pancreatitis” (J Med Chem, 2021)
Activity calls are given as the source filed them. No cut-off for these calls is given here.

Key:
[1] = tested on: SH-SY5Y; assay: cells; settings: Homo sapiens, 24 h, read-out: LD50
Description: Cytotoxicity against human SH-SY5Y cells assessed as lethal dose measured after 24 hrs by propidium iodide staining based fluorescent assay

[2] = Toxicity in overnight fasted C57BL/6 mouse model of cerulein-induced acute pancreatitis assessed as increase in body weight at 0.3 mg/kg, ip dosed 14 hrs after cerulein injection and measured 10 hrs after compound administration; format: organism-based; settings: in vivo
[3] = tested on: Mus musculus; assay: Anti-inflammatory activity against overnight fasted cerulein-induced acute pancreatitis C57BL/6 mouse model assessed as reversal of reversal of neutrophil infiltration at 0.3 mg/kg, ip dosed 14 hrs after cerulein injection and measured 10 hrs after compound administration; format: functional, organism-based
[4] = Toxicity in overnight fasted C57BL/6 mouse model of cerulein-induced acute pancreatitis assessed as increase in body weight at 0.1 mg/kg, ip dosed 14 hrs after cerulein injection and measured 10 hrs after compound administration; format: organism-based; settings: in vivo
[5] = tested on: Mus musculus; assay: Anti-inflammatory activity against overnight fasted cerulein-induced acute pancreatitis C57BL/6 mouse model assessed as reduction in inflammatory cells at 0.1 to 0.3 mg/kg, ip dosed 14 hrs after cerulein injection and measured 10 hrs after compound administration; format: functional, organism-based; settings: dose 0.1-0.3 mg/kg
[6] = tested on: Mus musculus; assay: Anti-inflammatory activity against overnight fasted cerulein-induced acute pancreatitis C57BL/6 mouse model assessed as reversal of pancreatic damage at 0.3 mg/kg, ip dosed 14 hrs after cerulein injection and measured 10 hrs after compound administration; format: functional, organism-based
[7] = Drug uptake in overnight fasted pancreas of cerulein-induced acute pancreatitis C57BL/6 mouse model at 0.1 mg/kg, ip dosed 14 hrs after cerulein injection and measured 10 hrs after compound administration; format: ADME, organism-based; settings: in vivo
[8] = tested on: Mus musculus; assay: Anti-inflammatory activity against overnight fasted cerulein-induced acute pancreatitis C57BL/6 mouse model assessed as reduction in parenchymal atrophy at 0.1 to 0.3 mg/kg, ip dosed 14 hrs after cerulein injection and measured 10 hrs after compound administration; format: functional, organism-based; settings: dose 0.1-0.3 mg/kg
[9] = Toxicity in overnight fasted C57BL/6 mouse model of cerulein-induced acute pancreatitis assessed as reversal of edema at 0.3 mg/kg, ip dosed 14 hrs after cerulein injection and measured 10 hrs after compound administration; format: organism-based; settings: in vivo
[10] = tested on: Mus musculus; assay: Anti-inflammatory activity against overnight fasted cerulein-induced acute pancreatitis C57BL/6 mouse model assessed as reduction in severity of pancreatitis at 0.1 to 0.3 mg/kg, ip dosed 14 hrs after cerulein injection and measured 10 hrs after compound administration; format: functional, organism-based; settings: dose 0.1-0.3 mg/kg

Compound	CC50 [1] [µM]	Activity [2]	Activity [3]	Activity [4]	Activity [5]	Activity [6]	Drug uptake [7]	Activity [8]	Activity [9]	Activity [10]
O=C(NC12CC3CC(Cl)(CC(C1)c1ccccc13)C2)N[C@H]1CC[C@H](Oc2ccc(C(=O)O)cc2)CC1	> 100	Toxic	Active	Toxic	Active	Active	Not Active	Active	Non-Toxic	Active
CC12CC3CC(NC(=O)N[C@H]4CC[C@H](Oc5ccc(C(=O)O)cc5)CC4)(CC(C1)c1ccccc13)C2	> 100									
O=C(NC12CC3CC(F)(CC(C1)c1ccccc13)C2)N[C@H]1CC[C@H](Oc2ccc(C(=O)O)cc2)CC1	> 100									
